The values that follow come from patent publication US20110171714A1, “CRYSTAL STRUCTURE OF TAK1-TAB1” (VERTEX PHARMACEUTICALS INCORPORATED, priority 2005, published 2011).

The subject of assay [1] is picryl chloride-induced ear swelling. The settings on record: picryl chloride-induced ear swelling mouse model; cited from earlier work.
The target in assay [2] is T1, TAK1 kinase domain (residues I31-Q303) of human transforming growth factor-beta-activated kinase 1, as part … (human, UniProt O43318 31-303).
T1 construct: range 31-303; In the crystal this domain is not a separate chain; Its C-terminus (Q303) is fused directly, without linker, to TAB1 H468-P504, giving one polypeptide; It was expressed in baculovirus/Hi5 cells and is unphosphorylated; The N-terminal His6 tag was removed by thrombin; also called TAK1 catalytic kinase domain
T1 sequence (looked up): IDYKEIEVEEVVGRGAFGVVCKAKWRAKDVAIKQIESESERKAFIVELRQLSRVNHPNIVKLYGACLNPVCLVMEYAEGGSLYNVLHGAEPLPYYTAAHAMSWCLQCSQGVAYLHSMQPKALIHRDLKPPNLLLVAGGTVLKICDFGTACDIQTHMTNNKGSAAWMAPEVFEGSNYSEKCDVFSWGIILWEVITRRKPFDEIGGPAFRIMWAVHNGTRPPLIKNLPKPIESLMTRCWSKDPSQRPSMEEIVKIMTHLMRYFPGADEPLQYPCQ
The assay can be described thus: X-ray crystal structure of the TAK1(I31-Q303)/TAB1(H468-P504) chimera (both parts in one fused chain).

In the case of `COc1cc(O)c2c(c1)/C=C/C[C@H](O)[C@H](O)C(=O)/C=C\C[C@H](C)OC2=O` [5Z-7-oxozeaenol], the effect on inflammation entry in assay [1] was “relieves inflammation”.

B1: TAB1 segment (residues H468-P504) of human TAK1 binding protein, as part of the TAK1(I31-Q303)/TAB1(H468-P504) chimera (peptide, UniProt Q15750 468-504, looked up)
chain: HSLPPGEDGRVEPYVDFAEFYRLWSVDHGEQSVVTAP
notes: range 468-504; In the crystal this segment is not a separate chain; It is fused directly to the C-terminus of TAK1 I31-Q303; also called Tab1 peptide
Turning to B1, the binding result in assay [2] is “binds”.
